Results from article PMC6736736 (Molecular microbiology, 2019).

Tests used:
ZagA (YciC) [1] = target: T1, ZagA (YciC) (Bacillus subtilis, UniProt P94400); assay: inhibition of GTP hydrolysis, malachite green assay; assay type: biochemical; details: substrate GTP
ZagA (YciC) [2] = target: T1, ZagA (YciC); assay: inhibition of ZTP hydrolysis, malachite green assay; assay type: biochemical; details: substrate ZTP

T1 sequence (P94400 whole entry): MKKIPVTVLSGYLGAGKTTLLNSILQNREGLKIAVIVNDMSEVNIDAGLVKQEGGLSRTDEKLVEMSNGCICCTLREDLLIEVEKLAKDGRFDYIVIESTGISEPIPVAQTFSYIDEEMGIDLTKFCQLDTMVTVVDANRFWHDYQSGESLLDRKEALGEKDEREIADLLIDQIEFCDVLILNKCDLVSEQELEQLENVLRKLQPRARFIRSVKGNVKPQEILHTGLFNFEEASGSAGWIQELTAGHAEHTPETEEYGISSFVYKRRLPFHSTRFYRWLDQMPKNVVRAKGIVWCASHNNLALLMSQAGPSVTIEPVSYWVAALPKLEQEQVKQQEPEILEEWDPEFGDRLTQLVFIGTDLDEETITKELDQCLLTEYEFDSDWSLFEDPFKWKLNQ

## NC(=O)c1ncn([C@@H]2O[C@H](COP(=O)(O)O)[C@@H](O)[C@H]2O)c1N [ZMP]
ZagA (YciC) [1]
  inhibition of GTPase activity: Conversely, ZMP inhibited GTP hydrolysis (Fig 4D)

## Nc1nc2c(ncn2[C@@H]2O[C@H](COP(=O)(O)OP(=O)(O)NP(=O)(O)O)[C@@H](O)[C@H]2O)c(=O)[nH]1 [GDP-NP]
ZagA (YciC) [2]
  inhibition of ZTPase activity: GDP-NP, a non-hydrolyzable analog of GTP, inhibited ZTP hydrolysis
